{"source": "patent US20230381267A1", "about": "“OXYTOCIN TREATMENT FOR HYPERMOBILE EHLERS-DANLOS SYNDROME” (Baylor College of Medicine, priority 2020, published 2023)", "origin": "cited, not measured here", "key": {"[1]": {"settings": "IV administration, irritable bowel syndrome"}, "[2]": {"settings": "humans, preliminary research"}, "[3]": {"settings": "intranasal, individuals with tension-type headache and migraine"}}, "data": [{"smiles": "CC[C@H](C)[C@@H]1NC(=O)[C@H](Cc2ccc(O)cc2)NC(=O)[C@@H](N)CSSC[C@@H](C(=O)N2CCC[C@H]2C(=O)N[C@@H](CC(C)C)C(=O)NCC(N)=O)NC(=O)[C@H](CC(N)=O)NC(=O)[C@H](CCC(N)=O)NC1=O", "note": "[oxytocin]", "values": [{"measurement": "average effect (Cohen d)", "setting": "across central and peripheral modes of administration and type of noxious stimulus (heat, electric)", "value": 2.28}, {"measurement": "duration of analgesic effects", "setting": "after exogenous administration", "value": "approximately 1 hour"}, {"measurement": "time at which analgesic effects were strongest", "setting": "after exogenous administration", "value": "20 to 30", "unit": "min"}, {"measurement": "animal studies in which oxytocin increased pain tolerance", "setting": "systematic review Rash, AguirreCamacho and Campbell 2014", "value": "29 of 33"}, {"measurement": "effect on pain tolerance", "setting": "[1]", "value": "significant effect"}, {"measurement": "pain sensitivity", "setting": "[2]", "value": "decreases pain sensitivity"}, {"measurement": "headache relief", "setting": "[3]", "value": "relieve headache in a dose-dependent manner"}]}]}
